Source: patent publication US12590950B2, “Methods for predicting ER-mediated DNA damage” (UNIVERSITY OF MASSACHUSETTS, priority 2019, dated 2026)

How the values were obtained:
T47D cells [1] = assay: Cell proliferation assay (alamar blue) in T47D cells; assay type: cell-based, human
Procedure: Cell Proliferation Assay: T47D cells grown in clearing media for 72 h was plated as 100 μl of cells suspension having 5000 or 10000 cells per well on five 96 well plates (one for each day). The 96 well plate had 12 cell-free wells for a blank and 7 wells per treatment on each plate. After 24 h, 100 μl of E2, BP3 or PP containing media was added to appropriate wells on each plate to reach the desired final concentration in each well. All plates were maintained in a 37° C., 5% CO2 incubator until media was exchanged, on one plate per day, for 10% Alamar Blue in plating media. Plates were read at the same time each day at 4 hr and 8 hr after media exchange on a BioTek Synergy 2 plate reader (Winooski, VT) at 570 nm and 600 nm. Percent alamar blue reduction was calculated as per the following equation on the AlamarBlue protocol: […]

MCF-7 cells = assay: γH2AX immunostaining (DNA damage) in MCF-7 cells; assay type: cell-based, human; conditions: E2 10-100 nM, BP3 1-30 μM, PP 1-30 μM
Procedure: Immunostaining: Cells were grown in clearing media for 48 h and plated on 20 mm coverslip in 12 well plates with a density of 2×10^5 cells/well. […] Cells were washed with 1×PBS, blocked in 2% BSA/PBS with 0.1% Triton-X 100 for 1 hr at room temperature (RT), incubated overnight with γH2AX antibody (Cell Signaling #9718 S) or ERα antibody (Santa Cruz Biotechnology #sc-8002) at 4° C. and 1 hour with secondary antibody. S9.6: Cells were fixed in ice-cold 100% methanol for 10 min at −20° C., permeabilized in 100% acetone for 1 min at RT, blocked for 30 min in saline sodium citrate pH 7 (SSC, 4×), 3% BSA, 0.1% Triton-X and incubated with S9.6 (Kerafast #ENH001) 2 hr at RT followed by 1 h with secondary antibody. If indicated, slides were treated with RNase H (NEB #M0297L) for 4 hr at 37° C. prior to incubation with primary antibody. Stained cells were mounted with Vectashield mounting medium containing DAPI (Vector Laboratories #H-1200). Slides were imaged at 60× (immersion oil) with Nikon A1 Spectral Confocal microscope. Analysis of γH2AX and S9.6 intensity per nucleus or foci per nucleus was calculated using Nikon analysis software, where DAPI was used as a mask for the nucleus.

mammary epithelium [2] = assay: Acute oral exposure of ovariectomized mice: Ki67 proliferation of luminal epithelial cells; assay type: in vivo, mouse; conditions: 4 days, E2 250, BP3 3,000, PP 10,000 μg/kg/day
Source text: (§1) Animal Treatment: Forty mature female mice (8 weeks old) BALB/c mice were purchased from Jackson Laboratory and housed in temperature-controlled facilities with a 12-hour alternating day/night light cycle and fed LabChow 5058 ad libitum. All procedures were in accordance with the national guidelines for the care and use of animals and approved by the University of Massachusetts Amherst's Institutional Animal Care and Use Committee.
(§2) The mice were ovariectomized before treatment. Briefly, each mouse was anaesthetized with a mix of isofluorance and oxygen. The flanks were shaved, sterilized with betadine and cleaned with alcohol. An incision was made to the skin on the right flank. The underlying muscle layer was nicked to reveal a small hole through which ovary was pulled out by grasping the periovarian fat. A Serrifin clamp was used to hold the ovary. After making sure the blood vessels were constricted to prevent […], the ovary was cut from the uterine horn. The periovarian fat was restored into the peritoneum. The peritoneum was closed with one or two stiches and the skin was closed with 9 mm wound clips. The procedure was repeated on the contralateral side. The mouse was monitored for a week post-procedure and wound clips were removed after 10 days. After 1 week of recovery, the mice began an acute oral treatment via pipette with one of three different compounds prepared in tocopherol-stripped corn oil for 4 days. Each mouse was administered 1 μL of oil per gram of body weight to deliver 250 μg/kg/d E2, 3000 μg/kg/d BP3 or 10000 μg/kg/d PP or vehicle control. […]
(§3) Immunostaining of mouse mammary gland: Freshly cut […] paraffin-embedded sections were deparaffinized/rehydrated with 100% xylenes 3 times for 5 min each, 2 times with 100% ethanol for 5 min each, 95% ethanol for 3 min and 70% ethanol for 3 min. […] Analysis of S9.6 intensity per nucleus or foci per nucleus were calculated using Nikon analysis software, where DAPI was used as a mask for the nucleus. […] Positive cells were counted using ImageJ software. 1200 cells were counted to determine percent Ki67 positive.

T47D cells [3] = assay: 53BP1 immunostaining in T47D cells; assay type: cell-based, human; conditions: E2 10-100 nM, BP3 1-5 μM, PP 1-5 μM
Areg and Pgr = assay: Acute oral exposure of ovariectomized mice: Areg and Pgr expression in mammary gland; assay type: in vivo, mouse; conditions: 4 days, E2 250, BP3 3,000, PP 10,000 μg/kg/day
Procedure: RT-qPCR: RNA from T47D cells, MCF-7 Cells or flash-frozen 4th mammary gland was isolated with TRIzol (Thermofisher Scientific #15596018) and Direct-zol RNA MiniPrep Plus (Zymo Research #R2072). cDNA was prepared with Protoscript II First Strand cDNA Synthesis Kit (New England Biolabs #E6560S) and qPCR for TFF1, progesterone receptor (PGR) and Amphiregulin (AREG) was performed on CFX96 Real-Time System thermocycler (Bio-Rad) using primers in Table 1.
as §1, §2

mammary epithelium [4] = assay: Acute oral exposure of ovariectomized mice: nuclear S9.6 staining of mammary epithelium; assay type: in vivo, mouse; conditions: 4 days, E2 250, BP3 3,000, PP 10,000 μg/kg/day
Source text: as §1, §2, §3

Compound	Slope of growth curve (T47D cells [1]; 0.5 nM)	nuclear γH2AX intensity (MCF-7 cells)	proliferation (Ki67) of mammary luminal epithelial cells (mammary epithelium [2])	53BP1 nuclear intensity (T47D cells [3])	transcriptional activation of ER-target genes (Areg and Pgr) (Areg and Pgr)	nuclear S9.6 staining in mammary epithelium over control treated animals (mammary epithelium [4])	Slope of growth curve (T47D cells [1]; 5 μM)	Slope of growth curve (T47D cells [1]; 50 μM)	proliferation (T47D cells [1]; 5 or 50 μM)	Slope of growth curve (T47D cells [1]; 1 μM)	Slope of growth curve (T47D cells [1]; 10 μM)	proliferation (T47D cells [1]; 10 μM)
C[C@]12CC[C@@H]3c4ccc(O)cc4CC[C@H]3[C@@H]1CC[C@@H]2O [E2, 17β-estradiol, reference compound]	0.08495	dose-dependent increase in nuclear γH2AX intensity	stimulated	dose-dependent increases in 53BP1 nuclear intensity	stimulated	3.8 fold	–	–	–	–	–	–
COc1ccc(C(=O)c2ccccc2)c(O)c1 [BP3, 2-Hydroxy-4-methoxybenzophenone]	–	dose-dependent increase in nuclear γH2AX intensity	neither BP3 nor PP elicited significant responses	higher nuclear 53BP1 intensity over control	neither BP3 nor PP elicited significant responses	2.5 fold	0.0202	0.01581	marginal effect	–	–	–
CCCOC(=O)c1ccc(O)cc1 [PP, propyl parahydroxybenzoate]	–	dose-dependent increase in nuclear γH2AX intensity	neither BP3 nor PP elicited significant responses	dose-dependent increases in 53BP1 nuclear intensity	neither BP3 nor PP elicited significant responses	3.8 fold	–	–	–	0.01856	0.06387	stimulates significant proliferation
